Measured values from patent US10800784B2, “Nitrogen-containing heterocyclic amide compound and pharmaceutical use thereof” (Japan Tobacco Inc., priority 2018, dated 2020).

Key:
[1] = biological target: human PDHK1 (hPDHK1) (Homo sapiens (Human), UniProt Q15118); assay: Inhibitory action of PDHK1 activity in vitro (residual PDH activity after PDHK reaction); type: biochemical; conditions: for IC50: PDH/hPDHK1 complex solution, PDHK reaction at room temperature for 45 min, NADH absorbance at 340 nm, read-out: hPDK1 IC50; for inhibition at 0.003 µM: at 3 nmol/L, shown when IC50 value could not be calculated, read-out: hPDHK1 inhibitory rate at the lowest concentration of the test compound
human PDHK1 (hPDHK1), sequence (Q15118 29-436): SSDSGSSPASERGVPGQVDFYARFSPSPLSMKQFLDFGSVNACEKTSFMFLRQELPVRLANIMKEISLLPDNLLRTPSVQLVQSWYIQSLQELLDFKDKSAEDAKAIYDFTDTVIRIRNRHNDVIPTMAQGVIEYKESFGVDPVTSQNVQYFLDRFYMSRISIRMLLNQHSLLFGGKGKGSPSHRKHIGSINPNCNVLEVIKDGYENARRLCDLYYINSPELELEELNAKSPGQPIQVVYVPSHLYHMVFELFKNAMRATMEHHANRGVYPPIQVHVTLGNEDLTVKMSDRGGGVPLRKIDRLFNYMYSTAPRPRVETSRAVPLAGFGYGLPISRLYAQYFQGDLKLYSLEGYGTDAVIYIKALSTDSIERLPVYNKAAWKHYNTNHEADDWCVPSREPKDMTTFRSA
Procedure, shortened: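 N-FLAG hPDHK1 (E. coli-expressed, 0.5 μg/mL) precomplexed overnight at 4 °C with porcine heart PDH (0.025 U/mL), then reacted 45 min at room temperature with compound and ATP (0.353 μmol/L as added) in MOPS pH 7.0 buffer. Residual PDH activity after 90 min with pyruvate, CoA, NAD, TPP read as NADH at 340 nm.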

[2] = biological target: human PDHK2 (hPDHK2) (Homo sapiens (Human), UniProt Q15119); assay: Inhibitory action of PDHK2 activity in vitro (residual PDH activity after PDHK reaction); type: biochemical; conditions: for IC50: PDH/hPDHK2 complex solution, PDHK reaction at room temperature for 45 min, NADH absorbance at 340 nm, read-out: kPDK2 IC50; for hPDHK2 inhibitory rate at the lowest concentration of the test compound: lowest concentration of the test compound in the assay (<3 nmol/L), shown when IC50 value could not be calculated
Procedure, shortened: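 Indirect assay: FLAG-tagged hPDHK2 (0.5 μg/mL) precomplexed overnight at 4 °C with PDH (0.025 U/mL), then kinase reaction with compound and ATP 45 min at room temperature, pH 7.0 MOPS buffer. Residual PDH activity measured after 90 min with pyruvate, CoA, NAD, TPP as NADH absorbance at 340 nm, corrected for compound effect on PDH-only blank.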

Row | Compound | IC50 [1] | IC50 [2] | inhibition at 0.003 µM [1] | hPDHK2 inhibitory rate at the lowest concentration of the test compound [2]
1 | Cc1c(-c2ccc(C#N)cc2)nn(C)c1C(=O)N1Cc2cnc([C@@](C)(O)C(F)(F)F)n2[C@@H](C)C1 [Example 76] | 6 nM | 9 nM |  | 
2 | C[C@H]1CN(C(=O)c2ccc(C#N)c(-c3ccc(F)cn3)c2)Cc2cnc([C@@](C)(O)C(F)(F)F)n21 [Example 77] | 6 nM | 9 nM |  | 
3 | C[C@H]1CN(C(=O)c2ccnc(-c3ccc(C#N)cc3)c2F)Cc2cnc([C@@](C)(O)C(F)(F)F)n21 [Example 78] | 4 nM | 7 nM |  | 
4 | C[C@H]1CN(C(=O)c2cccc(-c3ccc(C#N)cn3)c2)Cc2cnc([C@@](C)(O)C(F)(F)F)n21 [Example 79] | 5 nM | 8 nM |  | 
5 | C[C@H]1CN(C(=O)c2cncc(-c3ccc(F)cc3)c2)Cc2cnc([C@@](C)(O)C(F)(F)F)n21 [Example 80] | 3 nM | 6 nM |  | 
6 | C[C@H]1CN(C(=O)c2cc(-c3ccc(F)cn3)nn2C)Cc2cnc([C@@](C)(O)C(F)(F)F)n21 [Example 81] | 5 nM | 7 nM |  | 
7 | C[C@H]1CN(C(=O)c2ccc(F)c(-c3ccncc3F)c2)Cc2cnc([C@@](C)(O)C(F)(F)F)n21 [Example 82] | 5 nM | 7 nM |  | 
8 | C[C@H]1CN(C(=O)c2ccc(F)c(-c3cncc(F)c3)c2)Cc2cnc([C@@](C)(O)C(F)(F)F)n21 [Example 83] | 5 nM | 11 nM |  | 
9 | C[C@H]1CN(C(=O)c2ccc(F)c(-c3ccncc3C#N)c2)Cc2cnc([C@@](C)(O)C(F)(F)F)n21 [Example 84] | 5 nM | 11 nM |  | 
10 | C[C@H]1CN(C(=O)c2ccc(C#N)c(-n3cc(Cl)cn3)c2)Cc2cnc([C@@](C)(O)C(F)(F)F)n21 [Example 85] | < 3 nM | 6 nM | 49% | 
11 | C[C@H]1CN(C(=O)c2cc(-c3ccc(F)cc3)ncc2F)Cc2cnc([C@@](C)(O)C(F)(F)F)n21 [Example 86] | < 3 nM | 4 nM | 52% | 
12 | C[C@H]1CN(C(=O)c2ccnc(-c3ccc(F)cc3)c2F)Cc2cnc([C@@](C)(O)C(F)(F)F)n21 [Example 87] | < 3 nM | < 3 nM | 66% | 53%
13 | C[C@H]1CN(C(=O)c2ccnc(-c3ccc(F)cc3F)c2)Cc2cnc([C@@](C)(O)C(F)(F)F)n21 [Example 88] | 3 nM | 4 nM |  | 
14 | C[C@H]1CN(C(=O)C2CCC(n3cc(Cl)cn3)CC2)Cc2cnc([C@@](C)(O)C(F)(F)F)n21 (some centres unmarked) [Example 89] | 20 nM | 19 nM |  | 
15 | C[C@H]1CN(C(=O)C2(C)CN(c3ccc(F)cn3)C2)Cc2cnc([C@@](C)(O)C(F)(F)F)n21 [Example 90] | 66 nM | 45 nM |  | 
16 | C[C@H]1CN(C(=O)C2(C)CN(C3CC(F)(F)C3)C2)Cc2cnc([C@@](C)(O)C(F)(F)F)n21 [Example 91] | 49 nM | 28 nM |  | 
17 | C[C@H]1CN(C(=O)[C@H]2CCN(c3ccc(C#N)cn3)C2)Cc2cnc([C@@](C)(O)C(F)(F)F)n21 [Example 92] | 27 nM | 23 nM |  | 
18 | C[C@H]1CN(C(=O)c2ccc(N3CCN(C)CC3)cc2)Cc2cnc([C@@](C)(O)C(F)(F)F)n21 [Example 93] | 8 nM | 11 nM |  | 

Results, then the compound that gave them:

Row | IC50 [1] | IC50 [2] | inhibition at 0.003 µM [1] | hPDHK2 inhibitory rate at the lowest concentration of the test compound [2] | Compound
19 | 40 nM | 24 nM |  |  | C[C@H]1CN(C(=O)c2cnc(C3CC3)nc2)Cc2cnc([C@@](C)(O)C(F)(F)F)n21 [Example 94]
20 | 6 nM | 15 nM |  |  | C[C@H]1CN(C(=O)c2ccnc(N3CCC(F)(F)CC3)c2)Cc2cnc([C@@](C)(O)C(F)(F)F)n21 [Example 95]
21 | 8 nM | 8 nM |  |  | C[C@H]1CN(C(=O)c2ccnc(C3CC3)c2)Cc2cnc([C@@](C)(O)C(F)(F)F)n21 [Example 96]
22 | 63 nM | 26 nM |  |  | C[C@H]1CN(C(=O)c2ncncc2-c2ccc(F)cc2)Cc2cnc([C@@](C)(O)C(F)(F)F)n21 [Example 97]
23 | 6 nM | 6 nM |  |  | C[C@H]1CN(C(=O)c2cc(C3CC3)nc(C(F)(F)F)c2)Cc2cnc([C@@](C)(O)C(F)(F)F)n21 [Example 98]
24 | 8 nM | 12 nM |  |  | C[C@H]1CN(C(=O)c2cc3n(n2)CCO3)Cc2onc([C@@](C)(O)C(F)(F)F)c21 [Example 99]
25 | 4 nM | 5 nM |  |  | C[C@H]1CN(C(=O)c2cc3n(n2)CCC3)Cc2onc([C@@](C)(O)C(F)(F)F)c21 [Example 100]
26 | < 3 nM | 4 nM | 69% |  | C[C@H]1CN(C(=O)c2n[nH]c3ccccc23)Cc2onc([C@@](C)(O)C(F)(F)F)c21 [Example 101]
27 | 4 nM | 4 nM |  |  | C[C@H]1CN(C(=O)c2cccc3[nH]ncc23)Cc2onc([C@@](C)(O)C(F)(F)F)c21 [Example 102]
28 | < 3 nM | < 3 nM | 67% | 66% | C[C@H]1CN(C(=O)c2n[nH]c3c2CCC(C)(C)C3)Cc2onc([C@@](C)(O)C(F)(F)F)c21 [Example 103]
29 | 4 nM | 6 nM |  |  | C[C@H]1CN(C(=O)c2n[nH]c3ccc(F)cc23)Cc2onc([C@@](C)(O)C(F)(F)F)c21 [Example 104]
30 | 9 nM | 8 nM |  |  | C[C@H]1CN(C(=O)[C@H]2NCCc3ccccc32)Cc2onc([C@@](C)(O)C(F)(F)F)c21 [Example 105]
31 | < 3 nM | 4 nM | 61% |  | C[C@H]1CN(C(=O)[C@@H]2c3ccccc3CCN2C)Cc2onc([C@@](C)(O)C(F)(F)F)c21 [Example 106]
32 | 5 nM | 6 nM |  |  | CC(=O)N1CCc2ccccc2[C@H]1C(=O)N1Cc2onc([C@@](C)(O)C(F)(F)F)c2[C@@H](C)C1 [Example 107]
33 | 5 nM | 6 nM |  |  | C[C@H]1CN(C(=O)c2cc(C3CC3)nn2C)Cc2onc([C@@](C)(O)C(F)(F)F)c21 [Example 108]
34 | < 3 nM | 5 nM | 53% |  | C[C@H]1CN(C(=O)c2ccnn2C2CC2)Cc2onc([C@@](C)(O)C(F)(F)F)c21 [Example 109]
35 | 7 nM | 13 nM |  |  | C[C@H]1CN(C(=O)c2ccn(C3CC3)n2)Cc2onc([C@@](C)(O)C(F)(F)F)c21 [Example 110]
36 | 3 nM | 6 nM |  |  | C[C@H]1CN(C(=O)c2cc(C3CC3)n[nH]2)Cc2onc([C@@](C)(O)C(F)(F)F)c21 [Example 111, (3-cyclopropyl-1H-pyrazol-5-yl)((R)-4-methyl-3-((R)-1,1,1-trifluoro-2-hydroxypropan-2-yl)-4,7-dihydroisoxazolo[5,4-c]pyridin-6(5H)-yl)methanone]
37 | 3 nM | 5 nM |  |  | C[C@H]1CN(C(=O)c2[nH]nc(C3CC3)c2Cl)Cc2onc([C@@](C)(O)C(F)(F)F)c21 [Example 112]
38 | 4 nM | 5 nM |  |  | C[C@H]1CN(C(=O)c2cc(C3CC3)n(C)n2)Cc2onc([C@@](C)(O)C(F)(F)F)c21 [Example 113]
39 | 5 nM | 7 nM |  |  | C[C@H]1CN(C(=O)c2cc(C#N)nn2C2CC2)Cc2onc([C@@](C)(O)C(F)(F)F)c21 [Example 114]
40 | 6 nM | 8 nM |  |  | C[C@H]1CN(C(=O)c2nnc(C3CC3)o2)Cc2onc([C@@](C)(O)C(F)(F)F)c21 [Example 115]
